Laboratory results as given in US11234960B2, “Compositions and methods for improving mitochondrial function and treating neurodegenerative diseases and cognitive disorders” (Amazentis SA, priority 2010, dated 2022).

Columns and labels:
Type in all cases: in vivo
[1] = system: maternally separated mice; assay: Rotarod motor learning in early-life stress mice; conditions: early-life stressed mice, 90 mg/kg/day (FIG. 44)
Method: At postnatal day 1, pups were culled to have 6 pups per mother. From postnatal day 1 to 14, unpredictable maternal separation (MS) of a period of 3 hours daily was carried out. Maternal separation was performed at random times (from 8 am to 2 pm) to avoid the habituation of the mother to the procedure. The protocol consisted of removing pups from their mother to another cage at room temperature for a 3 hour period, after which the pups were returned to their original nest. These groups are denoted as early-life stress in the figures. A control group of dam/pups was left undisturbed and is denoted in the figures as normal.
One week after maternal separation mice were separated into two groups. One control group received the standard mouse chow diet (Untreated), while the other group received the ellagitannin punicalagin admixed into the food and designed to deliver a dose of 90 mg/kg/day to the mice. Treatment with the diet began 1 week after the termination of the maternal separation treatment. […]
To measure the effects of pomegranate-derived compounds on the negative cognitive impacts of maternal separation, effects on motor learning were assayed using the rotarod behavioral assay. […] The latency to fall was measured with a cutoff time of 300 sec. […]

normal mice = assay: Treadmill endurance test in normal mice; conditions: 55 mg/kg/day in food, 6 weeks of treatment (FIG. 49)
Method: Normal 8-week-old mice were acclimated for 2 weeks prior to the start of the study. Mice were fed with a standard rodent diet (chow diet) or a diet containing urolithin A mixed with the food to reach a dosing of 55 mg/kg/day delivered to the mice. Following 6 weeks of treatment, mice were tested for their muscle performance by means of an endurance test.
An endurance test was performed using a variable speed belt treadmill enclosed in a plexiglass chamber with a stimulus device consisting of a shock grid attached to the rear of the belt (Panlab, Barcelona, Spain). Mice were run at 10 cm/sec and a 0° of incline for 5 min. Speed was then incremented by 2 cm/sec every 5 min, until mice were exhausted. The distance run and the number of shocks obtained over 5 min intervals were recorded. Mice were considered exhausted and removed from the experiment when they received approximately 20 shocks in a period of 1 min. Control untreated and urolithin A-treated mice were tested and compared for their performance.
Improved muscle performance and endurance is reflected by an ability to run at higher speeds on the treadmill. Mice will seek to avoid the shock and will run despite the increasing speed. At a certain point the mice are unable to keep up with the treadmill speed and are shocked. After reaching the threshold levels of shocks, mice are removed from the treadmill. […]

[2] = system: C57BL/6J mice exposed to chronic unpredictable stress; assay: Contextual fear conditioning in chronically stressed mice; conditions: 25 mg/kg/d in diet, daily exposure for four days (FIG. 31)
Method: Three weeks before the initiation of the chronic stress protocol mice were separated into four different groups. One group received standard mouse chow diet (Control), while the remaining three groups received varying doses of extract 1011, an extract derived from pomegranate juice. Low dose corresponded to an extract dose of 21 mg/kg/d of gallic acid equivalents of polyphenols (GAE PPE), the medium dose corresponded to an extract dose of 43 mg/kg/d of GAE PPE, the high dose corresponded to an extract dose of 86 mg/kg/d of GAE PPE (see Table 5).
Three weeks before the initiation of the chronic stress protocol, mice were separated into two groups. […]
The unpredictable chronic stress protocol involved exposing animals to a daily stressful situation at an unpredictable moment for 4 weeks (between 8 am and 4 pm, and randomly distributed over the 28 days). […] All animals were weighed and the state of their coat was evaluated on a regular basis (every 3-5 days). […]
Contextual fear conditioning was used to test the effect of pomegranate extract on anxiety induction (i.e., learned anxiety) in mice in response to contextual recognition. […] To determine the effect of chronic stress and the various doses of pomegranate extract on the level of anxiety induced by this contextual memory, the level of anxiety-induced behavior in response to this context was measured. […]

SMILES	motor learning, latency to fall from rotarod [1]	muscle performance and endurance, treadmill speed (normal mice)	extinction of memory of the adverse context (freezing) [2]
O=C1O[C@H]2[C@@H]3OC(=O)c4cc(O)c(O)c(O)c4-c4c(O)c(O)c5oc(=O)c6c(c(O)c(O)c7oc(=O)c4c5c76)-c4c(cc(O)c(O)c4O)C(=O)OC[C@H]3OC(O)[C@@H]2OC(=O)c2cc(O)c(O)c(O)c2-c2c1cc(O)c(O)c2O (mixture of isomers) [punicalagin, 2,3 hexahydroxydiphenoyl-4,6-gallagylglucose]	restored motor learning skills		
O=c1oc2cc(O)ccc2c2ccc(O)cc12 [urolithin A, 3,8-Dihydroxydibenzo-α-pyrone]		ran at higher speeds than untreated control mice	significant improvement in adverse memory extinction
